Experiment [1] has as its system 3T3-L1. In words: Induction of insulin-stimulated [14C]deoxy-glucose uptake in mouse 3T3L1 cells pretreated at 10 uM for 24 hrs before insulin stimulation by scintillation counting relative to vehicle-treated control. Type of experiment: functional.
Experiment [2] has as its target T1, Peroxisome proliferator-activated receptor gamma (Homo sapiens) (UniProt P37231).
T1 sequence (whole entry): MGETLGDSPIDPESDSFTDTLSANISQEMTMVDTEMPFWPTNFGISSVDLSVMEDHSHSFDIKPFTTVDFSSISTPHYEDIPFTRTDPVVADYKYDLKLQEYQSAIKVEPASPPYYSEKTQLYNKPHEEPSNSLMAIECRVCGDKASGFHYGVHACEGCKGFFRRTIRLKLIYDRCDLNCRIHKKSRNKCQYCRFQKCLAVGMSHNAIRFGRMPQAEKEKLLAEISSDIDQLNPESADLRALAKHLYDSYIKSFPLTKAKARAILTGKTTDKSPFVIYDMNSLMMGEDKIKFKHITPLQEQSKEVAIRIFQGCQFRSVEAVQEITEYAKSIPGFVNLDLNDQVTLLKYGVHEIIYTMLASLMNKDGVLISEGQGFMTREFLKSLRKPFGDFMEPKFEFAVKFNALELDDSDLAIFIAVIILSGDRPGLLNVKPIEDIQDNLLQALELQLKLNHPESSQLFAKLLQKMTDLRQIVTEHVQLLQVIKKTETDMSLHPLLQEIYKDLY
In words: Agonist activity at PPARgamma (unknown origin) transfected in HEK293 cells assessed as transcriptional activity at 10 uM relative to rosiglitazone. It is filed as cell-based.

The target of experiment [3] is T1, Peroxisome proliferator-activated receptor gamma (Homo sapiens). Briefly: Binding affinity to PPARgamma (unknown origin) at 10 uM by Polarscreen competitor assay relative to rosiglitazone.
Experiment [4] deals with 3T3-L1. In words: Induction of adipogenesis in mouse 3T3L1 cells at 20 ug/ml by microscopic analysis relative to rosiglitazone. It is filed as functional.

Structures are written as SMILES.

In the case of `O=S(=O)(Nc1cnc(OC2CCN(c3ccccc3)CC2)c(Cl)c1)c1ccc(F)cc1F`, the “fold change (FC)” value in the experiment on 3T3-L1 [1] came to 1.12. In addition, the Emax in experiment [2] is 12%. The compound also showed an Imax in experiment [3] of 78%. In the experiment with 3T3-L1 [4], this compound gave an Emax at 20 µg/mL of 21%.

Regarding `Cc1ccccc1S(=O)(=O)Nc1cnc(OC2CCN(c3ccccc3)CC2)c(Cl)c1`, the “fold change (FC)” value in the experiment with 3T3-L1 [1] turned out to be 0.97. The Emax in experiment [2] amounted to 12%. In experiment [3], this compound had an Imax of 72%. In the experiment with 3T3-L1 [4], this compound showed an Emax at 20 µg/mL of 22%.

For the compound `N#Cc1ccc(S(=O)(=O)Nc2cnc(OC3CCN(c4ccccc4)CC3)c(Cl)c2)cc1`, in the experiment with 3T3-L1 [1], the “fold change (FC)” value is on record as 1.07. Further, the Emax in experiment [2] was determined as 11%. Besides, in experiment [3], the Imax was determined as 37%. In the experiment with 3T3-L1 [4], this compound had an Emax at 20 µg/mL of 20%.

Take `O=S(=O)(Nc1cnc(OC2CCN(c3ccccc3)CC2)c(Cl)c1)c1ccc(F)c(Cl)c1`: the “fold change (FC)” value in the experiment on 3T3-L1 [1] was determined as 0.98. Moreover, the Emax in experiment [2] worked out at 10%. The Imax in experiment [3] worked out at 79%. Besides, the Emax at 20 µg/mL in the experiment with 3T3-L1 [4] was determined as 20%.

`CN(CCOc1ncc(NS(=O)(=O)c2ccc(Cl)cc2Cl)cc1Cl)c1nc2ccccc2o1`: the “fold change (FC)” value in the experiment with 3T3-L1 [1] was 1.12. Moreover, in experiment [2], the Emax amounted to 16%. The same compound had an Imax in experiment [3] of 82%. Moreover, in the experiment with 3T3-L1 [4], the Emax at 20 µg/mL was 22%.

As to `O=S(=O)(Nc1cnc(OC2CCN(c3ccccc3)CC2)c(Cl)c1)c1ccc(Cl)cc1Cl`, the “fold change (FC)” value in the experiment on 3T3-L1 [1] is recorded as 1.26. The Emax in experiment [2] was 14%. For the same compound, in experiment [3], the Imax was 79%. Further, the Emax at 20 µg/mL with 3T3-L1 [4] was determined as 18%.

Turning to `COc1ccc(S(=O)(=O)Nc2cnc(OC3CCN(c4ccccc4)CC3)c(Cl)c2)c(OC)c1`, in the experiment with 3T3-L1 [1], the “fold change (FC)” value was found to be 1.44. In experiment [2], the Emax was found to be 17%. Also, the Imax in experiment [3] is 51%. The compound further yielded an Emax at 20 µg/mL in the experiment with 3T3-L1 [4] of 20%.

As for `O=S(=O)(Nc1cnc(OC2CCN(c3ccccc3)CC2)c(Cl)c1)c1ccc(-c2ccccn2)s1`, the “fold change (FC)” value with 3T3-L1 [1] is reported as 0.93. The Emax in experiment [2] was found to be 13%. In addition, the Imax in experiment [3] amounted to 76%. In the experiment with 3T3-L1 [4], this compound yielded an Emax at 20 µg/mL of 15%.

In the case of `CN(CCOc1ccc(NS(=O)(=O)c2ccc(Cl)c(Cl)c2)cn1)c1nc2ccccc2o1`, in the experiment on 3T3-L1 [1], the “fold change (FC)” value was found to be 1.02. The Emax in experiment [2] was determined as 14%. In experiment [3], this compound came in with an Imax of 78%. In addition, the Emax at 20 µg/mL in the experiment on 3T3-L1 [4] was found to be 20%.

`COc1ccc(S(=O)(=O)Nc2cnc(OC3CCN(c4ccccc4)CC3)c(Cl)c2)cc1`: the “fold change (FC)” value in the experiment on 3T3-L1 [1] came to 1.12. In experiment [2], the Emax turned out to be 15%. In experiment [3], the Imax turned out to be 47%. In the experiment on 3T3-L1 [4], this compound came in with an Emax at 20 µg/mL of 30%.

With `O=S(=O)(Nc1cnc(OC2CCN(c3ccccc3)CC2)c(Cl)c1)c1ccc(C(F)(F)F)cc1`, the “fold change (FC)” value in the experiment on 3T3-L1 [1] is given as 0.99. The Emax in experiment [2] amounted to 14%. The same compound returned an Imax in experiment [3] of 98%. Also, the Emax at 20 µg/mL in the experiment on 3T3-L1 [4] is 20%.
